Experimental data: US7348347B2, “Substituted 4,5,6,7-tetrahydrobenzthiazol-2-ylamine compounds” (Gruenenthal GmbH, priority 2004, dated 2008)

Assays:
5-HT uptake = target: T1, 5-HT uptake (Rattus norvegicus, UniProt P31652); experiment: Inhibition of 5-HT uptake in rat brain synaptosomes; format: biochemical; details: rat synaptosomes (medulla and pons), [3H]-5-HT
T1 construct: from tissue; host or cells: rat brain synaptosomes (P2 fraction) from marrow (medulla) and pons
Procedure: The relevant literature reference is enclosed herein by reference and is to be regarded as part of the disclosure.
The homogenate is centrifuged at 4° C. for 10 minutes at 1000 g. Following subsequent centrifugation at 17,000 g for 55 minutes, the synaptosomes (P2 fraction) are obtained, which are then resuspended in 0.32 M […] (0.5 mL/100 mg of the original weight).
The respective uptake was measured in a 96 well microtiter plate. The volume was 250 μL and the incubation was carried out at room temperature (ca 20-25° C.) under a blanket of oxygen.
The 96 samples through were then filtered through a Unifilter GF/B® microtiter plate (Packard) and washed with 200 mL of incubated buffer with the aid of a “Brabdel Cell-Harvester MPXRI 96T”. The Unifilter GF/B plate was dried at 55° C. over a period of 1 h. The plate was then sealed with a back seal® (Packard) and there were then added 35 μL of scintillant fluid per well (Ultima Gold, Packard).
A detailed description of the method is disclosed in the literature, for example, in M. Ch.

NA transporter = target: T2, NA transporter (Rattus norvegicus, UniProt Q63380); experiment: Inhibition of noradrenaline uptake in rat brain synaptosomes; format: biochemical; details: 10 μM, rat synaptosomes (hypothalamus), [3H]-NA; for inhibition at 10 µM: read-out: % Inhibition of NA uptake [10 μM]
T2 construct: from tissue; host or cells: rat brain synaptosomes (P2 fraction) from hypothalamus
T2 sequence (Q63380 1-617): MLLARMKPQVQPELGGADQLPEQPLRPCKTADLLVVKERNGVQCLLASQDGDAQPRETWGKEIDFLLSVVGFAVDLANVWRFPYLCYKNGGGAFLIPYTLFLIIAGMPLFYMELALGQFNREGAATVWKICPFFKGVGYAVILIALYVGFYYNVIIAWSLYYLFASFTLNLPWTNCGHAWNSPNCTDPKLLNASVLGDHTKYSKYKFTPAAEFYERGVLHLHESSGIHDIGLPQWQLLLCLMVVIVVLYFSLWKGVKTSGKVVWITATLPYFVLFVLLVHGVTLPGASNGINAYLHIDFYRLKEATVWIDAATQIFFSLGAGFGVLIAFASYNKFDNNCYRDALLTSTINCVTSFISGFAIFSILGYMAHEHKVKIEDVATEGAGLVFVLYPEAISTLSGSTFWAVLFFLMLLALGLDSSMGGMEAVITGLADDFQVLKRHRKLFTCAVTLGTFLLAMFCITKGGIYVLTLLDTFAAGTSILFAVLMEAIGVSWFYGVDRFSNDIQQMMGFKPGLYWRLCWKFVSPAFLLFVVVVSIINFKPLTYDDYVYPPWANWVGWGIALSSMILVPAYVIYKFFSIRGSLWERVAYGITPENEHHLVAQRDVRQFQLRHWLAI
Procedure: II. […] For in vitro studies, synaptosomes of rat brain areas are freshly isolated, as described in the article “The isolation of nerve endings from brain” by E. G. Gray and […]. Anatomy 96, pages 79-88, 1962. The relevant literature reference is enclosed herein by reference and is to be regarded as part of the disclosure. […] The homogenate is centrifuged at 4° C. for 10 minutes at 1000 g. […] The respective uptake was measured in a 96 well microtiter plate. The volume was 250 μL and the incubation was carried out at room temperature (ca 20-25° C.) under a blanket of oxygen. […] The 96 samples through were then filtered through a Unifilter GF/B® microtiter plate (Packard) and washed with 200 mL of incubated buffer with the aid of a “Brabdel Cell-Harvester MPXRI 96T”. The Unifilter GF/B plate was dried at 55° C. over a period of 1 h. The plate was then sealed with a back seal® (Packard) and there were then added 35 μL of scintillant fluid per well (Ultima Gold, Packard). Following sealing with a top seal® (Packard) and following adjustment of the equilibrium (approximately over a period of 5 h), the radioactivity is determined in a 1450 Microbeta® (Wallac). […] The amount of protein used in the above determination corresponded to the values known from the literature, such as is described in “Protein measurement with the folin phenol reagent”, Lowry et al., J. Biol. Chem., 193, 265-275, 1951. A detailed description of the method is disclosed in the literature, for example, in […], and B. […] The relevant literature references are incorporated herein by reference and are to be regarded as part of the disclosure.

T1 sequence (P31652 whole entry): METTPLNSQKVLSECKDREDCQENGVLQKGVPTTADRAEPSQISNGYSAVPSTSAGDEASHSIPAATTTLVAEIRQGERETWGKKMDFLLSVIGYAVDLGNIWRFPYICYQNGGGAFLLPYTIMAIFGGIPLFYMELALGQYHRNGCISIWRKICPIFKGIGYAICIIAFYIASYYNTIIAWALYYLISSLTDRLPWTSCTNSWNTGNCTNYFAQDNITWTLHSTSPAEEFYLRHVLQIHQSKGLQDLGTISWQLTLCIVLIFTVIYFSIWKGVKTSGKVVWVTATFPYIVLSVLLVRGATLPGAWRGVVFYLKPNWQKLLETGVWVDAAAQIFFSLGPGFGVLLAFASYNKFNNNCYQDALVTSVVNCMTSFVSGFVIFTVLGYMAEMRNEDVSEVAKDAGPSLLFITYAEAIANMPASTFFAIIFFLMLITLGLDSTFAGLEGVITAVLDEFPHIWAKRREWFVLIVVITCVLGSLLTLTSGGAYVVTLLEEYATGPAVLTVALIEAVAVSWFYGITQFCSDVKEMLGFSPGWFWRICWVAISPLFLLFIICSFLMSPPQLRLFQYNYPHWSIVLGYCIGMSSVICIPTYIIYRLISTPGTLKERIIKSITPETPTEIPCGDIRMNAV

inhibition at 10 µM (5-HT uptake) [%] | inhibition at 10 µM (NA transporter) [%] | Structure (SMILES) | further results
61 | 65 | CC(C(=O)Nc1nc2c(s1)CCCC2C(=O)NCCCN(C)C)c1ccccc1 (stereo not drawn) [Example 3, 2-(2-Phenylpropionylamino)-4,5,6,7-tetrahydrobenzthiazol-4-carboxylic acid (3-dimethylaminopropyl)amide] | 
51 | 48 | COc1ccc(N2CCN(C(=O)C3CCCc4sc(NC(=O)c5ccccc5)nc43)CC2C)cc1 (stereo not drawn) [Example 7, N-{4-[4-(4-Methoxyphenyl)-3-methylpiperazin-1-carbonyl]-4,5,6,7-tetrahydrobenzthiazol-2-yl]-benzamide] | 
 |  | CC(=O)c1ccc(N2CCN(C(=O)C3CCCc4sc(NC(=O)c5ccco5)nc43)CC2)cc1 (stereo not drawn) [Example 8, Furan-2-carboxylic acid{4-[4-(4-acetylphenyl)piperazin-1-carbonyl]-4,5,6,7-tetrahydrobenzthiazol-2-yl}amide] | % Inhibition of 5-HT uptake [10 μM] (5-HT uptake): 89%; % Inhibition of NA uptake [10 μM] (NA transporter): 78%
 | 57 | O=C(C=Cc1ccco1)Nc1nc2c(s1)CCCC2C(=O)N1CCN(Cc2ccsc2)CC1 (stereo not drawn) [Example 11, 3-Furan-2-yl-N-[4-(4-thiophen-3-ylmethylpiperazin-1-carbonyl)-4,5,6,7-tetrahydrobenzthiazol-2-yl]acrylamide] | 
 |  | CC(C(=O)Nc1nc2c(s1)CCCC2C(=O)NC1CCN(Cc2ccc(Oc3ccccc3)cc2)C1)c1ccccc1 (stereo not drawn) [Example 15, 2-(2-Phenylpropionylamino)-4,5,6,7-tetrahydrobenzthiazol-4-carboxylic acid[1-(4-phenoxybenzyl)pyrrolidin-3-yl]amide] | % Inhibition of NA uptake [10 μM] (NA transporter): 91%
 | 88 | O=C(Nc1nc2c(s1)CCCC2C(=O)NCCN1CCCCCC1)c1ccoc1 (stereo not drawn) [Example 16, 2-[(Furan-3-carbonyl)amino]-4,5,6,7-tetrahydrobenzthiazol-4-carboxylic acid (2-azepan-1-ylethyl)amide] | 
 | 71 | CC(C(=O)Nc1nc2c(s1)CCCC2C(=O)NCCN(C)C)c1ccccc1 (stereo not drawn) [Example 19, 2-(2-Phenylpropionylamino)-4,5,6,7-tetrahydrobenzthiazol-4-carboxylic acid (2-dimethylaminoethyl)amide] | 
 |  | CC(C(=O)Nc1nc2c(s1)CCCC2C(=O)NCC1CCN(Cc2ccccc2OCc2ccccc2)C1)c1ccccc1 (stereo not drawn) [Example 36, 2-(2-Phenylpropionylamino)-4,5,6,7-tetrahydrobenzthiazol-4-carboxylic acid[1-(2-benzyloxybenzyl)pyrrolidin-3-yl]methylamide] | % Inhibition of NA uptake [10 μM] (NA transporter): 62%
 | 42 | CCN(CC)CCNC(=O)C1CCCc2sc(NC(=O)CCc3ccccc3)nc21 (stereo not drawn) [Example 38, 2-(3-Phenylpropionylamino)-4,5,6,7-tetrahydrobenzthiazol-4-carboxylic acid (2-diethylaminoethyl)amide] | 
 |  | N#Cc1ccccc1N1CCN(C(=O)C2CCCc3sc(NC(=O)c4ccco4)nc32)CC1 (stereo not drawn) [Example 47, Furan-2-carboxylic acid{4-[4-(2-cyan-phenyl)piperazin-1-carbonyl]-4,5,6,7-tetrahydrobenzthiazol-2-yl]-amide] | % Inhibition of NA uptake [10 μM] (NA transporter): 47%
 |  | CCCCCC(=O)Nc1nc2c(s1)CCCC2C(=O)N1CCN(c2ccccc2F)CC1 (stereo not drawn) [Example 52, Hexanoic acid{4-[4-(2-fluorophenyl)piperazin-1-carbonyl]-4,5,6,7-tetrahydrobenzthiazol-2-yl}amide] | % Inhibition of NA uptake [10 μM] (NA transporter): 72%
 | 44 | CN(C(=O)C1CCCc2sc(NC(=O)COc3ccccc3)nc21)C1CCN(Cc2ccccc2C(F)(F)F)C1 (stereo not drawn) [Example 54, 2-(2-Phenoxyacetylamino)-4,5,6,7-tetrahydrobenzthiazol-4-carboxylic acid methyl-[1-(2-trifluoromethylbenzyl)pyrrolidin-3-yl]amide] | 
 | 49 | COc1ccccc1CC(=O)Nc1nc2c(s1)CCCC2C(=O)NCC1CCN(Cc2cc3ccccc3o2)C1 (stereo not drawn) [Example 56, 2-[2-(2-Methoxyphenyl)acetylamino]-4,5,6,7-tetrahydrobenzthiazol-4-carboxylic acid (1-benzofuran-2-ylmethylpyrrolidin-3-yl)methylamide] | 
 | 72 | CN(C)c1ccc(CNC(=O)C2CCCc3sc(NC(=O)c4ccco4)nc32)cc1 (stereo not drawn) [Example 58, 2-[(Furan-2-carbonyl)amino]-4,5,6,7-tetrahydrobenzthiazol-4-carboxylic acid 4-dimethylaminobenzylamide] | 
 | 41 | COc1ccc(N2CCN(C(=O)C3CCCc4sc(NC(=O)C(C)c5ccccc5)nc43)CC2C)cc1 (stereo not drawn) [Example 60, N-{4-[4-(4-Methoxyphenyl)-3-methylpiperazin-1-carbonyl]-4,5,6,7-tetrahydrobenzthiazol-2-yl}-2-phenylpropionamide] | 
 | 48 | CC(c1ccccc1)N1CCN(C(=O)C2CCCc3sc(NC(=O)COc4ccccc4)nc32)CC1 (stereo not drawn) [Example 66, 2-Phenoxy-N-{4-[4-(1-phenylethyl)piperazin-1-carbonyl]-4,5,6,7-tetrahydrobenzthiazol-2-yl}acetamide] | 
 |  | N#Cc1ccccc1N1CCN(C(=O)C2CCCc3sc(NC(=O)CCc4ccccc4)nc32)CC1 (stereo not drawn) [Example 77, N-{4-[4-(2-Cyan-phenyl)piperazin-1-carbonyl]-4,5,6,7-tetrahydrobenzthiazol-2-yl}-3-phenylpropionamide] | % Inhibition of NA uptake [10 μM] (NA transporter): 44%
 | 71 | COc1ccc2ccccc2c1CN1CCN(C(=O)C2CCCc3sc(NC(=O)CC(C)(C)C)nc32)CC1 (stereo not drawn) [Example 79, N-{4-[4-(2-Methoxynaphthalene-1-ylmethyl)piperazin-1-carbonyl]-4,5,6,7-tetrahydrobenzthiazol-2-yl}-3,3-dimethylbutyramide] | 
52 |  | CCOc1cc(N2CCOCC2)c(OCC)cc1NC(=O)C1CCCc2sc(NC(=O)CC(C)(C)C)nc21 (stereo not drawn) [Example 80, 2-(3,3-Dimethylbutyrylamino)-4,5,6,7-tetrahydrobenzthiazol-4-carboxylic acid (2,5-diethoxy-4-morpholin-4-ylphenyl)amide] | 
44 |  | O=C(Cc1cc(F)cc(F)c1)Nc1nc2c(s1)CCCC2C(=O)N1CCN(C(c2ccccc2)c2ccccc2)CC1 (stereo not drawn) [Example 83, N-[4-(4-Benzhydrylpiperazin-1-carbonyl)-4,5,6,7-tetrahydrobenzthiazol-2-yl]-2-(3,5-difluorophenyl)acetamide] | 
53 |  | O=C(Cc1cccs1)Nc1nc2c(s1)CCCC2C(=O)N1CCN(C(c2ccccc2)c2ccccc2)CC1 (stereo not drawn) [Example 84, N-[4-(4-Benzhydrylpiperazin-1-carbonyl)-4,5,6,7-tetrahydrobenzthiazol-2-yl]-2-thiophen-2-ylacetamide] | 
48 |  | CCOc1ccccc1C(=O)Nc1nc2c(s1)CCCC2C(=O)N1CCN(c2ccccc2Cl)CC1 (stereo not drawn) [Example 85, N-{4-[4-(2-Chlorophenyl)piperazin-1-carbonyl]-4,5,6,7-tetrahydrobenzthiazol-2-yl}-2-ethoxybenzamide] | 
54 |  | CC(C)(C)CC(=O)Nc1nc2c(s1)CCCC2C(=O)N1CCN(c2ccc(C(F)(F)F)cn2)CC1 (stereo not drawn) [Example 86, 3,3-Dimethyl-N-{4-[4-(5-trifluoromethylpyridin-2-yl)piperazin-1-carbonyl]-4,5,6,7-tetrahydrobenzthiazol-2-yl}butyramide] | 
41 |  | O=C(CC1CCCCC1)Nc1nc2c(s1)CCCC2C(=O)N1CCN(C(c2ccccc2)c2ccccc2)CC1 (stereo not drawn) [Example 88, N-[4-(4-Benzhydrylpiperazin-1-carbonyl)-4,5,6,7-tetrahydrobenzthiazol-2-yl]-2-cyclohexylacetamide] | 
